Experiment: Minimum film formation temperature (MFFT) of AquaCoat ECD-30 suspensions, MFFT-bar model 90
Format: physicochemical
Conditions: added at 9% by weight based on ethylcellulose solids
Method: The MFFT of such suspensions was tested with MFFT-bar model 90. The MFFT bar was preset and the desired temperature range was selected depending on predicted MFFT value. Ranges 3 (5° C. to 18° C.), 4 (15° C.-33° C.) or range 5 (23° C. to 50° C.) were used in this study. The formulation was applied using a 400 micron cube applicator from warm side to cold side, and the MFFT value was read after the film was formed.
Such compounds were added at a rate of 9% by weight (based on weight of ethylcellulose solids). The compounds evaluated were PGDL (propylene glycol dilaurate; HLB 2)), GMC (glyceryl monocaprylate, HLB 8.3), GML (glyceryl monooleate, HLB 2.8) and TGDS (triglycerol diisosterarate HLB 10-13). […] Sticky residue was found in the formulation even after mixing for extended time. The film on the MFFT bar was not smooth or transparent.

| Effect on MFFT of the formulation | Compound | Compatibility with the formulation |
| --- | --- | --- |
| – | CCCCCCCC(=O)OCC(O)CO (stereo not drawn) [GMC, glyceryl monocaprylate] | didn't have good compatibility with the formulation |
| didn't effectively decrease the MFFT | CCCCCCCCCCCC(=O)OCC(C)OC(=O)CCCCCCCCCCC (stereo not drawn) [PGDL, propylene glycol dilaurate] | – |
| – | triglycerol diisosterarate [TGDS] | didn't have good compatibility with the formulation |

Source: patent publication US20230072225A1, “CONTROLLED RELEASE COMPOSITION AND METHOD” (DUPONT NUTRITION USA, INC., priority 2014, published 2023)
